In patent US20240315989A1 (priority 2021, published 2024):

Tests used:
σ1 site [1] = target: T1, σ1 site (Homo sapiens, UniProt Q99720); conditions: read-out: Affinity for σ1 Site (Ki or KD values); cited from earlier work
σ1 site [2] = target: T1, σ1 site; conditions: cited from earlier work
SARS-CoV-2 infection = assay: Retrospective cohort (BJC Healthcare): antidepressant exposure and ED or hospital encounter within 30 days; format: in vivo, human; conditions: for Unadjusted Odds Ratio, ED or hospital encounter within 30 days / Adjusted Odds Ratio, ED or hospital encounter within 30 days: vs No Antidepressant (Ref); for Unadjusted Odds Ratio, ED or hospital encounter within 30 days: logistic regression; for Adjusted Odds Ratio, ED or hospital encounter within 30 days: multivariable logistic regression, complete cases
[3] = share of exposed outpatients with an encounter after a positive SARS-CoV-2 test

T1 sequence (Q99720 whole entry): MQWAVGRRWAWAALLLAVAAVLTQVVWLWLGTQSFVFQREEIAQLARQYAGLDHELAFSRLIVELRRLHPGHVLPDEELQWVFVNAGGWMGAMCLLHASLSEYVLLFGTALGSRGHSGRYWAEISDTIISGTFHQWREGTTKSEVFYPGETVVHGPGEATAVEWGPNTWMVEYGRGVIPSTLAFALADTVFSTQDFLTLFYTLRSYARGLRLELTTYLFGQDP

Row | Compound | Ki (σ1 site [1]) [nM] | Function on σ1 Site (σ1 site [2]) | other results
1 | S=C=Nc1cccc(C2(N3CCCCC3)CCCCC2)c1 [Metaphit] | < 500 | Irreversible | –
2 | CN(C)CCC=C1c2ccccc2COc2ccccc21 [Doxepin] | – | – | ED or hospital encounter within 30 days, % (SARS-CoV-2 infection; [3]): 27.5%; Unadjusted Odds Ratio, ED or hospital encounter within 30 days (SARS-CoV-2 infection): 3.55; Adjusted Odds Ratio, ED or hospital encounter within 30 days (SARS-CoV-2 infection): 1.10
3 | CC(C)=CCN1CCC2(C)c3cc(O)ccc3CC1C2C (single isomer, unassigned; (-)) [(−)-Pentazocine] | – | Agonist | –
4 | Cc1ccc2c(c1)[C@]13CCCC[C@@H]1[C@H](C2)N(C)CC3 [Dimemorfan] | < 500 | Agonist | –
5 | COc1ccc(N2C[C@H](CN3CCC(O)(c4ccc5c(c4)OCO5)CC3)OC2=O)cc1 [Panamesine (EMD 57445), Panamesine] | < 50 | Antagonist | –
6 | OC(CCCN1CCN(c2ncc(F)cn2)CC1)c1ccc(F)cc1 (stereo not shown) [BMY 14802] | – | Antagonist | –
7 | CCN(CC)CCOCCOC(=O)C1(c2ccccc2)CCCC1 [Carbetapentane] | < 50 | Agonist | –
8 | O=C1NC(=O)C(c2ccccc2)(c2ccccc2)N1 [Phenytoin (DPH), Phenytoin] | – | Allosteric | –
9 | OC1(c2ccc(Cl)cc2)CCNCC1 [Haloperidol Metabolite I] | < 500 | Antagonist | –
10 | Cc1cccc(/C=N/N2CCN(C(c3ccccc3)c3ccccc3)CC2)n1 [Ropizine] | – | Allosteric | –
11 | CNCC[C@H](Oc1cccc2ccccc12)c1cccs1 [Duloxetine] | – | – | ED or hospital encounter within 30 days, % (SARS-CoV-2 infection; [3]): 21.8%; Unadjusted Odds Ratio, ED or hospital encounter within 30 days (SARS-CoV-2 infection): 2.61; Adjusted Odds Ratio, ED or hospital encounter within 30 days (SARS-CoV-2 infection): 0.95
12 | COC(=O)[C@H]1[C@@H](OC(=O)c2ccccc2)C[C@@H]2CC[C@H]1N2C [Cocaine] | < 10000 | – | –
13 | C#CCN(C)CCCOc1ccc(Cl)cc1Cl [Clorgyline] | < 50 | Agonist^? | –
14 | Fc1ccc(C2=CCN(CCCCn3cncn3)CC2)cc1.O=C(O)CC(O)(CC(=O)O)C(=O)O [E-5842] | < 50 | Antagonist | –
15 | COc1ccc(C(CN(C)C)C2(O)CCCCC2)cc1 (stereo not shown) [venlafaxine] | – | – | ED or hospital encounter within 30 days, % (SARS-CoV-2 infection; [3]): 17.1%; Unadjusted Odds Ratio, ED or hospital encounter within 30 days (SARS-CoV-2 infection): 1.94; Adjusted Odds Ratio, ED or hospital encounter within 30 days (SARS-CoV-2 infection): 0.78
16 | CN(C)CCCC1(c2ccc(F)cc2)OCc2cc(C#N)ccc21 (stereo not shown) [citalopram] | – | – | ED or hospital encounter within 30 days, % (SARS-CoV-2 infection; [3]): 15.8%
17 | CCCN(CCC)CCc1ccc(OC)c(OCCc2ccccc2)c1 [NE-100] | – | Antagonist | –
18 | OC(CCCN1CCC(O)(c2ccc(Cl)cc2)CC1)c1ccc(F)cc1 (stereo not shown) [Haloperidol Metabolite II] | – | Irreversible | –
19 | O=C(OCCN1CCOCC1)C1(c2ccccc2)CCCCC1 [PRE 084] | – | Agonist | –
20 | CN1CCN2c3ncccc3Cc3ccccc3C2C1 (stereo not shown) [Mirtazapine] | – | – | ED or hospital encounter within 30 days, % (SARS-CoV-2 infection; [3]): 27.9%
21 | CCc1nn(CCCN2CCN(c3cccc(Cl)c3)CC2)c(=O)n1CCOc1ccccc1 [Nefazodone] | – | – | ED or hospital encounter within 30 days, % (SARS-CoV-2 infection; [3]): 0.0%
22 | N#Cc1ccc2[nH]cc(CCCCN3CCN(c4ccc5oc(C(N)=O)cc5c4)CC3)c2c1 [Vilazodone] | – | – | ED or hospital encounter within 30 days, % (SARS-CoV-2 infection; [3]): 29.4%; Unadjusted Odds Ratio, ED or hospital encounter within 30 days (SARS-CoV-2 infection): 3.91; Adjusted Odds Ratio, ED or hospital encounter within 30 days (SARS-CoV-2 infection): 1.36
23 | COc1cc2c(cc1OC)C(=O)C(CC1CCN(Cc3ccccc3)CC1)C2 (stereo not shown) [Donepezil] | < 50 | Agonist | –
24 | CN(C)CC(c1ccc(O)cc1)C1(O)CCCCC1 (stereo not shown) [Desvenlafaxine] | – | – | ED or hospital encounter within 30 days, % (SARS-CoV-2 infection; [3]): 18.7%; Unadjusted Odds Ratio, ED or hospital encounter within 30 days (SARS-CoV-2 infection): 2.15; Adjusted Odds Ratio, ED or hospital encounter within 30 days (SARS-CoV-2 infection): 0.95
25 | CN(C)CCCN1c2ccccc2CCc2ccccc21 [imipramine] | < 500 | Agonist | ED or hospital encounter within 30 days, % (SARS-CoV-2 infection; [3]): 23.5%
26 | CNCCCN1c2ccccc2CCc2ccccc21 [desipramine] | – | – | ED or hospital encounter within 30 days, % (SARS-CoV-2 infection; [3]): 10.0%; Unadjusted Odds Ratio, ED or hospital encounter within 30 days (SARS-CoV-2 infection): 1.04; Adjusted Odds Ratio, ED or hospital encounter within 30 days (SARS-CoV-2 infection): 0.24

Row | Compound | Ki (σ1 site [1]) [nM] | Function on σ1 Site (σ1 site [2]) | other results
27 | C[C@]12CC[C@H](OS(=O)(=O)O)CC1=CC[C@@H]1[C@@H]2CC[C@]2(C)C(=O)CC[C@@H]12 [DHEAS] | < 10000 | Agonist | –
28 | CCC(C/C=C/c1ccccc1)(c1ccccc1)N(C)CC1CC1 (stereo not shown) [JO-1784 (Igmesine), Igmesine] | < 50 | Agonist | –
29 | COCCN1CCN(C[C@H]2CCN(c3ccc(Cl)cc3)C2=O)CC1.O=C(O)C(O)C(O)C(=O)O [MS-377] | < 50 | Antagonist | –
30 | O=C(CC1CCN(CC2CC2)CC1)c1ccc(F)cc1 [Dup 734] | < 50 | – | –
31 | CC(NC(C)(C)C)C(=O)c1cccc(Cl)c1 (stereo not shown) [bupropion] | – | – | ED or hospital encounters within 30 days, % (SARS-CoV-2 infection; <20 mg fluoxetine-equivalent daily): 13.9%; ED or hospital encounter within 30 days, % (SARS-CoV-2 infection; [3]): 14.3%; ED or hospital encounters within 30 days, % (SARS-CoV-2 infection; ≥20 mg fluoxetine-equivalent daily): 15.0%; ED or hospital encounters within 30 days, % (SARS-CoV-2 infection; ≥40 mg fluoxetine-equivalent daily): 20.0%
32 | CCCN1CCC[C@H](c2cccc(O)c2)C1 [(+)-3-PPP] | – | Agonist | –
33 | CNC(C)Cc1ccc2c(c1)OCO2 (stereo not shown) [MDMA] | < 10000 | – | –
34 | CC12CC3CC(C)(C1)CC(N)(C3)C2 [Memantine] | < 10000 | Agonist^? | –
35 | Cc1ccc(Sc2ccccc2N2CCNCC2)c(C)c1 [Vortioxetine] | – | – | ED or hospital encounter within 30 days, % (SARS-CoV-2 infection; [3]): 14.3%; Unadjusted Odds Ratio, ED or hospital encounter within 30 days (SARS-CoV-2 infection): 1.56; Adjusted Odds Ratio, ED or hospital encounter within 30 days (SARS-CoV-2 infection): 0.58
36 | CN(C)CCN(C)CCc1ccc(Cl)c(Cl)c1 [BD 1047] | – | Antagonist | –
37 | C[C@@H]1CN(CCCn2c3ccccc3c3ccccc32)C[C@H](C)N1 [Rimcazole (BW-234U), Rimcazole] | – | Antagonist | –
38 | CN[C@@H](C)Cc1ccccc1 [Metamphetamine] | < 10000 | – | –
39 | CC(C)=CCN1CCC2(C)c3cc(O)ccc3CC1C2C (single isomer, unassigned; (+)) [(+)-Pentazocine] | – | Agonist | –
40 | OC(CN1CCC(Cc2ccc(F)cc2)CC1)c1ccc(Cl)cc1 (stereo not shown) [Eliprodil (SL-82.0715), Eliprodil] | < 500 | – | –
41 | CN1CCN(CCc2ccc(Cl)c(Cl)c2)CC1 [BD 1063] | < 50 | Antagonist | –
42 | CN(C)CCCN1c2ccccc2CCc2ccc(Cl)cc21 [clomipramine] | – | – | ED or hospital encounter within 30 days, % (SARS-CoV-2 infection; in vivo): 18.2%
43 | CNCCC=C1c2ccccc2CCc2ccccc21 [Nortriptyline] | – | – | ED or hospital encounter within 30 days, % (SARS-CoV-2 infection; [3]): 24.3%; Unadjusted Odds Ratio, ED or hospital encounter within 30 days (SARS-CoV-2 infection): 3.02; Adjusted Odds Ratio, ED or hospital encounter within 30 days (SARS-CoV-2 infection): 1.08
44 | O=c1n(CCCN2CCN(c3cccc(Cl)c3)CC2)nc2ccccn12 [Trazodone] | – | – | ED or hospital encounter within 30 days, % (SARS-CoV-2 infection; [3]): 22.6%; Unadjusted Odds Ratio, ED or hospital encounter within 30 days (SARS-CoV-2 infection): 2.74; Adjusted Odds Ratio, ED or hospital encounter within 30 days (SARS-CoV-2 infection): 0.99
45 | O=C(NC1CCN(Cc2ccccc2)CC1)c1ccc(I)cc1 [4-IBP] | < 50 | Agonist | –
46 | CNc1cc(OC)c(C(=O)NC2CCN(Cc3ccccc3)C2C)cc1Cl (stereo not shown) [Nemonapride] | < 50 | – | –
47 | CCN(CC)C(=O)[C@@]1(c2ccccc2)C[C@H]1CN [Levomilnacipran] | – | – | ED or hospital encounter within 30 days, % (SARS-CoV-2 infection; [3]): 20.0%
48 | CC(=O)[C@H]1CC[C@H]2[C@@H]3CCC4=CC(=O)CC[C@]4(C)[C@H]3CC[C@]12C [Progesterone] | – | Antagonist | –
49 | COc1cccc2c1CCC(=O)N2CCCN1CCN(c2cccc(Cl)c2)CC1 [OPC-14523] | < 50 | Agonist | –
50 | NC12CC3CC(CC(C3)C1)C2 [Amantadine] | – | Agonist^? | –
51 | Pregnenolone sulfate | – | Agonist | –
52 | COC(=O)C1(c2ccc(C)cc2)CC1CN1CCC(O)(c2ccccc2)CC1 (single isomer, unassigned; (+)) [(+)-MR 200] | < 50 | Antagonist | –
